Earlier results on one compound are cited in article PMC4691889 (Genes & Development, 2015).

pIC50: −log10 of the molar value.

In this data set the test system is NTMT1. As to conditions: inhibition of NTMT1, determined in previous studies; ref Richardson et al. 2015.

For `Nc1ncnc2c1ncn2[C@@H]1O[C@H](CSCC[C@H](N)C(=O)O)[C@@H](O)[C@H]1O` [SAH, S-adenosyl-L-homocysteine], the pIC50 is 5.48.
